# Results published in paper PMC3758111 (Planta medica, 2013).
# Read-outs that look alike come from different tables or passages of the source.
# How the values were obtained:
# [1] = 3 h after oral 60% ethanolic extract of E. angustifolia containing 0.4–2 mg of Bauer alkamide 8 and 10; cited from earlier work
# [2] = target: P-glycoprotein transporter (P-gp) (Homo sapiens, UniProt P08183); test: P-gp assay: calcein-AM efflux in Caco-2 cells; type: cell-based; settings: for Concentration that significantly inhibited P-gp activity: single compounds, calcein-AM, Caco-2, p < 0.05
# Sequence of P-glycoprotein transporter (P-gp) (P08183 whole entry): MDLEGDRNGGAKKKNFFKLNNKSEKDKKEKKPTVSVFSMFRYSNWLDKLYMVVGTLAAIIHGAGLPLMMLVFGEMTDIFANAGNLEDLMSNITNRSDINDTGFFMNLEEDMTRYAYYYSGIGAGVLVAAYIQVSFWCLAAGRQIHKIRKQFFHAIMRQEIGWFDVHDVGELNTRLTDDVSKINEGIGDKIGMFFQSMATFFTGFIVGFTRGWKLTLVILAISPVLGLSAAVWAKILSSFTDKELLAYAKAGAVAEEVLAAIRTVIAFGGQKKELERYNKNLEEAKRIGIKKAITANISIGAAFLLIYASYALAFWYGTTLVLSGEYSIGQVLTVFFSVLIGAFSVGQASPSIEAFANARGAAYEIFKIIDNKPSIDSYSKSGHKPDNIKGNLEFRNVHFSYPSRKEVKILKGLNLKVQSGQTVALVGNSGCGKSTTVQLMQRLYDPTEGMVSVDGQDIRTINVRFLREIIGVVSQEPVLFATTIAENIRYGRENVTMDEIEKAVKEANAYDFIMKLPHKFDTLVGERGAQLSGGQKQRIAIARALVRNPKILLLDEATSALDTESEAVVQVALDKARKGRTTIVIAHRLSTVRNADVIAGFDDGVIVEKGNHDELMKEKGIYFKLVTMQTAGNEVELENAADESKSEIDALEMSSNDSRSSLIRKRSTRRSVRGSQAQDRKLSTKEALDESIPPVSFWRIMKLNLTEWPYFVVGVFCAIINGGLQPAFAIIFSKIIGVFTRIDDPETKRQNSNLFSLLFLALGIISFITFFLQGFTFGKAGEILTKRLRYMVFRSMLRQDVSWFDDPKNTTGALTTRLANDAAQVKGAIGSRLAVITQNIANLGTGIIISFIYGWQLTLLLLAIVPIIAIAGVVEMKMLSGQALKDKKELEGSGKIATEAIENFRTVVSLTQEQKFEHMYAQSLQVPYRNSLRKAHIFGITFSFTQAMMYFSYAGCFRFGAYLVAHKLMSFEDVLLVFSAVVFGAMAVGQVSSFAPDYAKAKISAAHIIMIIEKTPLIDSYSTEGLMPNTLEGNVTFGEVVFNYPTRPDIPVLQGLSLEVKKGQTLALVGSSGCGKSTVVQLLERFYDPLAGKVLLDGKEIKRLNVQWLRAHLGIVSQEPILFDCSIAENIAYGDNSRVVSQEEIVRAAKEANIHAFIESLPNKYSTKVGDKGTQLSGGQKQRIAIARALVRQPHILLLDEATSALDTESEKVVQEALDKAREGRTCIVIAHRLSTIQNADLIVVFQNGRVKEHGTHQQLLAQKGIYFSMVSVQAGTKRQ
# [3] = test system: Caco-2 cells; test: Glucuronidation by Caco-2 cells; settings: for Compartments in which glucuronide metabolites were found: pure compound, 25 μM applied apically
# [4] = test system: Caco-2 cell monolayers; test: Transepithelial transfer across Caco-2 cell monolayers; type: in vitro ADME, human; settings: for Concentration dependency of uptake / Permeation rates at 37 °C compared with 4 °C: pure compounds; for Permeation rates at 37 °C compared with 4 °C: AP-BL
# [5] = as above; type: in vitro ADME, human; settings: human
# [6] = test system: nitric oxide production in lipopolysaccharide-stimulated RAW264.7 macrophages; settings: cited from earlier work
# [7] = test system: prostaglandin E (2) production in lipopolysaccharide-stimulated RAW264.7 macrophages; settings: cited from earlier work
# [8] = test system: Caco-2 cells; test: Cytotoxicity of pure compounds and extracts to Caco-2 cells; type: cell-based, human; settings: vs control 0.3% v/v DMSO in DMEM, p < 0.05; tested 10–1000 μM
# [9] = incubation with NADPH and human liver microsomes; cited from earlier work
# [10] = rats, oral, as pure compound or in E. purpurea root extract; cited from earlier work
# [11] = test system: multidrug transporter P-glycoprotein (P-gp); settings: isolated from E. pallida; human proximal tubular kidney cells; cited from earlier work
# [12] = test system: Caco-2 monolayers; settings: extracted and isolated from E. pallida roots; cited from earlier work
# [13] = 100 μM, 72 h, 37°C, RPMI 1640 medium; cited from earlier work
# [14] = Caco-2, pH 7.4, Papp, After, single compound, 10–100 μM, subsequent to deconjugation with β-glucuronidase, n=9
# [15] = Caco-2, pH 7.4, Papp, Before, single compound, 10–100 μM, prior to deconjugation with β-glucuronidase, n=9
Concentration that significantly inhibited P-gp activity [2] [µM],Compartments in which glucuronide metabolites were found [3],Permeation rates at 37 °C compared with 4 °C [4],"Papp at 90 min [5, 14] [×10⁻⁶ cm/s]","Papp at 90 min [5, 15] [×10⁻⁶ cm/s]",SMILES,Fraction of the ingested dose found in human blood [1],Concentration dependency of uptake ([4]; 10–100 μM),Nitric oxide production ([6]; 50 μM),Prostaglandin E (2) production ([7]; 50 μM),Concentrations significantly cytotoxic to Caco-2 cells [8] [µM],other results
205,in the apical side and cell lysates,No significant differences,18.3 ± 5.9,17.7 ± 8.8,"CCC/C=C\CC/C=C/C=C/C(=O)NCC(C)C [Bauer alkamide 10, (2E,4E,8Z)-N-isobutyldodeca-2,4,8-trienamide]",~1%,increased linearly and exhibited non-saturable transport,,,,
230,in the basolateral side and cell lysates,No significant differences,,2.8 ± 1.5,"CCCCCCC/C=C/C=C/C(=O)NCC(C)C [Bauer alkamide 11, (2E,4E)-N-isobutyldodeca-2,4-dienamide]",,increased linearly and exhibited non-saturable transport,significantly decrease,significantly decrease,> 460,
175,only in the apical side,No significant differences,39.8 ± 13.4,43.8 ± 11.2,"C/C=C\C=C/CC/C=C/C=C/C(=O)NCC(C)C [Bauer alkamide 8, (2E,4E,8Z,10Z)-N-isobutyldodeca-2,4,8,10-tetraenamide]",about 5%,increased linearly and exhibited non-saturable transport,significantly decrease,significantly decrease,> 350,"Metabolites formed [9]: Monohydroxylated, monoepoxidized, and N-dealkylated metabolites; Glucuronide or sulfate metabolite in urine [10]: no glucuronide or sulfate metabolite was present; Papp of Bauer alkamide 8 relative to Bauer alkamide 10 ([4]; Table 2): ~ 2.5 ×; Papp of Bauer alkamide 8 relative to Bauer alkamide 11 ([4]; Table 2): ~ 15 ×"
,,,,,"C/C=C\C#CC/C=C\CCCCCC(C)=O [Bauer ketone 24, pentadeca-(8Z, 13Z)-diene-11-yn-2-one]",,,,,> 990,"Nitric oxide production ([6]; 5 μM): significantly decrease; Prostaglandin E (2) production ([7]; 5 μM): significantly decrease; Concentrations inhibiting P-gp [11]: 3 to 200 µg/mL; Apparent permeability [12]: 10 ± 3 cm/s ×10^−6; Effect on P-gp activity ([2]; single compound, tested concentrations 1–250 μM): not active; Metabolism when incubated with Bauer alkamides 8, 10 and 11 ([3]; 10–100 μM, data not shown): totally metabolized; Metabolism when administered as a single compound ([3]; Caco-2 cells): totally metabolized to more hydrophilic metabolites; Recovery relative to applied amount after β-glucuronidase treatment ([3]; contained in E. sanguinea and E. pallida extracts, basolaterally and in cell lysates): significantly increased; Hydroperoxide intermediate formation, of the parent compound [13]: about 25%; Detection of parent compound apically, basolaterally or in cell lysates ([4]; applied as pure compound, 10–100 μM, any time point 15–90 min): not found; Recovered in the basolateral side ([4]; compound as contained in the two Echinacea species extracts): About 5%; Papp at 90 min ([5]; Caco-2, pH 7.4, Papp from E. sanguinea or E. pallida extracts): 12 to 17 ×10⁻⁶ cm/s"
